# Source: patent US9770026B2, “Substituted pyrimidine compound and uses thereof” (Shenyang Sinochem Agrochemicals R&D Co., Ltd., priority 2012, dated 2017)
# Experiments:
# [1] = system: cucumber downy mildew; experiment: protectant activity in vivo against cucumber downy mildew; conditions: Cucumis sativus, 168 h; for pest or weed control at 25 µg/mL: read-out: control effect against cucumber downy mildew (%), 25 mg/L; for pest or weed control at 50 µg/mL: read-out: control effect against cucumber downy mildew (%), 50 mg/L; for pest or weed control at 100 µg/mL: read-out: control effect against cucumber downy mildew (%), 100 mg/L; for pest or weed control at 400 µg/mL: read-out: control effect against cucumber downy mildew (%), 400 mg/L
# [2] = system: corn rust; experiment: protectant activity in vivo against corn rust; conditions: Zea mays, 168 h; for pest or weed control at 400 µg/mL: read-out: control effect against corn rust (%), 400 mg/L, protectant activity
# [3] = system: Green peach aphids (Myzus Persicae Sulzer); experiment: bioactivity test against green peach aphid, airbrush foliar spray; type: in vivo; conditions: Myzus persicae, foliar, 48 h; for pest or weed control at 10 µg/mL: 10 mg/L; for pest or weed control at 100 µg/mL: 100 mg/L; for pest or weed control at 600 µg/mL: 600 mg/L
# Method in brief: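 Aphids (15-30 per cabbage leaf disc) on moist filter paper were airbrush-sprayed at 10 psi, 0.5 mL, with compound from acetone:methanol (1:1) diluted in water with 0.1% tween 80. Held at 25±1 C, 60±5% RH; survivors counted after 48 hrs to give death rates.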
# [4] = system: cucumber gray mold; experiment: fungicidal activity in vitro (inhibition rate) against cucumber gray mold; type: cell-based; conditions: 25 ppm, in vitro; read-out: inhibition rate against cucumber gray mold
# [5] = system: carmine spider mite; experiment: bioactivity test against carmine spider mite, airbrush spray; type: in vivo; conditions: Tetranychus cinnabarinus, 72 h; for pest or weed control at 600 µg/mL: 600 mg/L, contrastive test, read-out: Insecticidal activity against carmine spider mite (% )
# Method in brief: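 Broadbean seedlings infested with adult mites were sprayed with compound (acetone/methanol stock diluted in 0.1% Tween 80 water) by airbrush at 0.7 kg/cm^2, 0.5 ml. Three replicates were run. Mortality was scored after 72 hrs.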
# [6] = system: armyworm; experiment: bioactivity test against armyworm, airbrush spray; type: in vivo; conditions: 72 h; for pest or weed control at 600 µg/mL: 600 mg/L
# [7] = system: wheat powdery mildew; experiment: protectant activity in vivo against wheat powdery mildew; conditions: Triticum aestivum, 168 h; for pest or weed control at 400 µg/mL: read-out: control effect against wheat powdery mildew (%), 400 mg/L
# [8] = system: Diamond back moth; experiment: insecticidal activity against diamond back moth, airbrush spray; type: in vivo; conditions: 72 h; for pest or weed control at 600 µg/mL: 600 mg/L
# Method in brief: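 Airbrush leaf-disc spray test: both faces of 2 cm cabbage discs received 0.5 ml of test solution at 0.7 kg/cm^2. Solutions were made in acetone:methanol (1:1) and brought to concentration with 0.1% Tween 80 in water. Ten second-instar larvae per disc, triplicates, were held at 25° C and 60˜70% R.H., with mortality recorded at 72 hrs.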
# [9] = system: rice blast; experiment: microbe, parasite or virus in culture; type: cell-based; conditions: Pyricularia oryzae; for inhibition at 25 ppm: read-out: inhibition rate against rice blast, 25 ppm, in vitro
# [10] = contrastive test, read-out: Insecticidal activity against peach aphid (%)
# [11] = read-out: Insecticidal activity against armyworm (%)
smiles,measurement,setting,value
CCc1ncnc(NCCc2ccc(Oc3ccc(C(F)(F)F)cc3)nc2)c1Cl [III-202],pest or weed control at 6.25 µg/mL,"[1]; read-out: control effect against cucumber downy mildew (%), 6.25 mg/L, protectant activity",100%
same,pest or weed control at 12.5 µg/mL,"[1]; read-out: control effect against cucumber downy mildew (%), 12.5 mg/L, protectant activity",100%
same,pest or weed control at 25 µg/mL,[1]; protectant activity,100%
same,pest or weed control at 50 µg/mL,[1]; protectant activity,100%
same,pest or weed control at 100 µg/mL,[1]; protectant activity,100%
same,pest or weed control at 400 µg/mL,[1]; protectant activity,100%
same,pest or weed control at 6.25 ppm,"[1]; read-out: protectant activity against cucumber downy mildew in vivo, 6.25 ppm",100%
same,pest or weed control at 12.5 ppm,"[1]; read-out: protectant activity against cucumber downy mildew in vivo, 12.5 ppm",100%
same,pest or weed control at 25 ppm,"[1]; read-out: protectant activity against cucumber downy mildew in vivo, 25 ppm",100%
same,pest or weed control at 50 ppm,"[1]; read-out: protectant activity against cucumber downy mildew in vivo, 50 ppm",100%
same,pest or weed control at 100 ppm,"[1]; read-out: protectant activity against cucumber downy mildew in vivo, 100 ppm",100%
same,pest or weed control at 100 ppm,"[2]; read-out: protectant activity against corn rust in vivo, 100 ppm",100%
same,pest or weed control at 400 ppm,"[2]; read-out: protectant activity against corn rust in vivo, 400 ppm",100%
same,pest or weed control at 1.25 µg/mL,"[3]; 1.25 mg/L, contrastive test, read-out: Insecticidal activity against peach aphid (%)",94%
same,pest or weed control at 2.5 µg/mL,"[3]; 2.5 mg/L, contrastive test, read-out: Insecticidal activity against peach aphid (%)",100%
same,pest or weed control at 5 µg/mL,"[3]; 5 mg/L, contrastive test, read-out: Insecticidal activity against peach aphid (%)",100%
same,pest or weed control at 10 µg/mL,[3]; [10],100%
same,pest or weed control at 100 µg/mL,[3]; [10],100%
same,pest or weed control at 600 µg/mL,[3]; [10],100%
same,pest or weed control at 10 ppm,"[3]; 10 ppm, death rate after 48 hrs",100%
same,pest or weed control at 100 ppm,"[3]; 100 ppm, death rate after 48 hrs",100%
same,pest or weed control at 600 ppm,"[3]; 600 ppm, death rate after 48 hrs",100%
same,inhibition at 25 ppm,[4],80 to 99%
same,pest or weed control at 100 ppm,"[5]; 100 ppm, mortality after 72 hrs",100%
same,pest or weed control at 600 ppm,"[5]; 600 ppm, mortality after 72 hrs",100%
same,pest or weed control at 10 µg/mL,"[6]; 10 mg/L, read-out: Insecticidal activity against armyworm (%)",65%
same,pest or weed control at 100 µg/mL,"[6]; 100 mg/L, read-out: Insecticidal activity against armyworm (%)",100%
same,pest or weed control at 600 µg/mL,[6]; [11],100%
same,pest or weed control at 100 ppm,"[6]; 100 ppm, mortality after 72 h",100%
same,pest or weed control at 600 ppm,"[6]; 600 ppm, mortality after 72 h",100%
same,pest or weed control at 6.25 µg/mL,"[7]; read-out: control effect against wheat powdery mildew (%), 6.25 mg/L, protectant activity",95%
same,pest or weed control at 25 µg/mL,"[7]; read-out: control effect against wheat powdery mildew (%), 25 mg/L, protectant activity",100%
same,pest or weed control at 100 µg/mL,"[7]; read-out: control effect against wheat powdery mildew (%), 100 mg/L, protectant activity",100%
same,pest or weed control at 400 µg/mL,[7]; protectant activity,100%
same,pest or weed control at 6.25 ppm,"[7]; read-out: protectant activity against wheat powdery mildew in vivo, 6.25 ppm",80 to 99%
same,pest or weed control at 25 ppm,"[7]; read-out: protectant activity against wheat powdery mildew in vivo, 25 ppm",100%
same,pest or weed control at 100 ppm,"[7]; read-out: protectant activity against wheat powdery mildew in vivo, 100 ppm",100%
same,pest or weed control at 400 ppm,"[7]; read-out: protectant activity against wheat powdery mildew in vivo, 400 ppm",100%
same,pest or weed control at 100 ppm,"[8]; 100 ppm, mortality after 72 hrs, read-out: control (test results against diamond back moth)",80 to 99%
same,pest or weed control at 600 ppm,"[8]; 600 ppm, mortality after 72 hrs, read-out: control (test results against diamond back moth)",100%
same,inhibition at 25 ppm,[9],80 to 99%
"Cc1nc(C)c(Cl)c(NCc2ccc(OCc3ccccc3)cc2)n1 [CK52, reference compound]",pest or weed control at 25 µg/mL,[1]; protectant activity,70%
same,pest or weed control at 50 µg/mL,[1]; protectant activity,90%
same,pest or weed control at 100 µg/mL,[1]; protectant activity,98%
same,pest or weed control at 400 µg/mL,[1]; protectant activity,100%
same,pest or weed control at 400 µg/mL,[2],85%
same,pest or weed control at 10 µg/mL,[3]; [10],0%
same,pest or weed control at 100 µg/mL,[3]; [10],0%
same,pest or weed control at 600 µg/mL,[3]; [10],88%
same,inhibition at 25 ppm,[4],0%
same,pest or weed control at 600 µg/mL,[5],44%
same,pest or weed control at 600 µg/mL,[6]; [11],0%
same,pest or weed control at 400 µg/mL,[7]; protectant activity,0%
same,pest or weed control at 600 µg/mL,[8],20%
same,inhibition at 8.3 ppm,"[9]; read-out: inhibition rate against rice blast, 8.3 ppm, in vitro",0%
"Cc1ncnc(NC(=O)Cc2ccc(Oc3ccc(C(F)(F)F)cc3Cl)cc2)c1Cl [CK58, reference compound]",pest or weed control at 400 µg/mL,[1]; protectant activity,0%
same,pest or weed control at 400 µg/mL,[2],0%
same,pest or weed control at 10 µg/mL,[3]; [10],0%
same,pest or weed control at 100 µg/mL,[3]; [10],0%
same,pest or weed control at 600 µg/mL,[3]; [10],100%
same,inhibition at 25 ppm,[4],0%
same,pest or weed control at 600 µg/mL,[5],0%
same,pest or weed control at 600 µg/mL,[6]; [11],0%
same,pest or weed control at 400 µg/mL,[7]; protectant activity,0%
same,pest or weed control at 600 µg/mL,[8],0%
same,inhibition at 25 ppm,[9],< 50%
